From paper PMC10692362 (Acta Pharmaceutica Sinica. B, 2023)

Tested on: ERα
Assay: Immunoblot analysis of ERα degradation across ERα^WT and ERα^MUT BC cell lines
Assay type: cell-based, human
Conditions: 5 μmol/L 29c with 10 μmol/L MG-132

SMILES: CC(C)=CC(=O)Nc1ccc(C2=C(c3ccc(O)cc3)C3OC2CC3S(=O)(=O)N(CC(F)(F)F)c2ccc(O)cc2)cc1 (stereo not shown) [Compound 29c, N-(4-(3-(4-Hydroxyphenyl)-5-(N-(4-hydroxyphenyl)-N-(2,2,2-trifluoroethyl)sulfamoyl)-7-oxabicyclo[2.2.1]hept-2-en-2-yl)phenyl)-3-methylbut-2-enamide]
- ERα degradation with proteasome inhibitor: lost its ability to degrade ERα
